Reference: BindingDB's records for doi:10.1016/j.bmc.2010.11.049 (Bryn Mawr College, 2011)

Experiment: Inhibition of HIV1 YU2 gp120 binding to CD4 expressing Cf2Th-CD4/CCR5 cells assessed as inhibition of viral infection after 48 hrs

SMILES	IC50
O=C(Nc1ccc(Cl)cc1)C(=O)c1c[nH]c2ccccc12 [N-(4-chlorophenyl)-2-(1H-indol-3-yl)-2-oxoacetamide]	> 100 µM
Cc1ccc(C(C)C)c(OCC(=O)NNC(=O)Nc2ccc(Cl)cc2)c1 [N-(4-chlorophenyl)-2-(2-(2-isopropyl-5-methylphenoxy)acetyl)hydrazinecarboxamide]	> 100 µM
O=C(CSc1[nH]c(=O)nc2c1CCCC2)Nc1ccc(Cl)cc1 [N-(4-chlorophenyl)-2-(2-oxo-1,2,5,6,7,8-hexahydroquinazolin-4-ylthio)acetamide]	> 100 µM
Cc1cc(SCC(=O)Nc2ccc(Cl)cc2)[nH]c(=O)n1 [N-(4-chlorophenyl)-2-(6-methyl-2-oxo-1,2-dihydropyrimidin-4-ylthio)acetamide]	> 100 µM
O=C(Nc1ccc(Cl)cc1)c1cc2c([nH]c1=O)CCCC2 [N-(4-chlorophenyl)-2-oxo-1,2,5,6,7,8-hexahydroquinoline-3-carboxamide]	> 100 µM
Cc1cccc(-c2cc(C(=O)Nc3ccc(Cl)cc3)[nH]n2)c1O [N-(4-chlorophenyl)-5-(2-hydroxy-3-methylphenyl)-1H-pyrazole-3-carboxamide]	> 100 µM
O=C(Nc1ccc(Cl)cc1)c1cc(-n2cnnc2)n[nH]1 [N-(4-chlorophenyl)-5-(4H-1,2,4-triazol-4-yl)-1H-pyrazole-3-carboxamide]	> 100 µM
CC1(C)CC(=O)c2cc(C(=O)Nc3ccc(Cl)cc3)c(=O)[nH]c2C1 [N-(4-chlorophenyl)-7,7-dimethyl-2,5-dioxo-1,2,5,6,7,8-hexahydroquinoline-3-carboxamide]	> 100 µM
N=c1oc2cc(O)ccc2cc1C(=O)Nc1ccc(Cl)cc1 [N-(4-chlorophenyl)-7-hydroxy-2-imino-2H-chromene-3-carboxamide]	> 100 µM
Cc1cc(OCC(=O)NCc2nnc[nH]2)ccc1Cl [N-((1H-1,2,4-triazol-3-yl)methyl)-2-(4-chloro-3-methylphenoxy)acetamide]	> 100 µM
NC(=O)C1CCN(CCC(=O)Nc2ccc(Br)cc2)CC1 [cis-1-(3-(4-bromophenylamino)-3-oxopropyl)-4-carbamoylpiperidinium]	> 100 µM
CC(C)C1CCN(CCC(=O)Nc2ccc(Br)cc2)CC1 [trans-1-(3-(4-bromophenylamino)-3-oxopropyl)-4-isopropylpiperidinium]	> 100 µM
